This passage reports IC50 results from ChEMBL document CHEMBL4414646, “Eutypellacytosporins A-D, Meroterpenoids from the Arctic Fungus Eutypella sp. D-1” (J Nat Prod, 2019).

Common to all, as to format: functional, cell-based
One assay deals with DU-145. The assay is described as follows: Cytotoxicity against human DU145 cells assessed as reduction in cell viability incubated for 72 hrs by CCK8 assay. The note with it: DU-145, 72 h. In general terms: Formazan colour is commonly taken as a measure of viable cells.
Another assay has as its system Huh-7. The assay is described as follows: Cytotoxicity against human HuH7 cells assessed as reduction in cell viability incubated for 72 hrs by CCK8 assay. The note with it: Huh-7, 72 h.
The next assay concerns PANC-1. The assay is described as follows: Cytotoxicity against human PANC1 cells assessed as reduction in cell viability incubated for 72 hrs by CCK8 assay. The note with it: PANC-1, 72 h.
In the next assay the test system is SW1990. As to the kind of experiment: Cytotoxicity against human SW1990 cells assessed as reduction in cell viability incubated for 72 hrs by CCK8 assay. The note with it: SW1990, 72 h.

Bounds are passed on as bounds.

In general, IC50 refers to the concentration at which inhibition is half-maximal. As to `C=C1[C@@H](OC(=O)C(C)(C)[C@H](C)O)C[C@H]2C[C@@H]1[C@]21C[C@]2(C[C@H](C)C(=O)O2)O[C@H]1OCC1=C(/C=C/CCCCC)[C@@H](O)[C@@H]2O[C@@]23C[C@H](O)C(C)(C)O[C@@H]13`, the IC50 was found to be 13.4 µM in the assay with DU-145, 9.6 µM in the assay on Huh-7, 7.5 µM in the assay with PANC-1 and 8.2 µM in the assay on SW1990.

As to `C=C1[C@@H](OC(=O)C(C)(C)[C@H](C)O)C[C@H]2C[C@@H]1[C@]21C[C@@]2(C[C@H](C)C(=O)O2)O[C@@H]1OCC1=C(/C=C/CCCCC)[C@@H](O)[C@@H]2O[C@@]23C[C@H](O)C(C)(C)O[C@@H]13`, the IC50 in the assay on DU-145 was 17.1 µM; in the assay on Huh-7, 8.4 µM; in the assay on PANC-1 it was 9.7 µM; in the assay with SW1990 it was 7.3 µM.

Take `CCCCC/C=C/C1=C(CO)[C@@H]2OC(C)(C)[C@@H](O)C[C@@]23O[C@H]3[C@@H]1O`: the IC50 in the assay on DU-145, in the assay on Huh-7, in the assay with PANC-1 and in the assay with SW1990 was greater than 50 µM in each case.

Take `C=C1[C@@H](OC(=O)C(C)(C)[C@H](C)O)C[C@H]2C[C@@H]1[C@]21C[C@]2(C[C@H](C)C(=O)O2)O[C@@H]1OCC1=C(/C=C/CCCCC)[C@@H](O)[C@@H]2O[C@@]23C[C@H](O)C(C)(C)O[C@@H]13`: the IC50 in the assay on DU-145 amounted to 13.5 µM; in the assay on Huh-7, 11.2 µM; in the assay with PANC-1 it was 10.2 µM; in the assay with SW1990, 9.6 µM.

Take `C=C1[C@@H](OC(=O)C(C)(C)[C@H](C)O)C[C@H]2C[C@@H]1[C@]21C[C@@]2(C[C@H](C)C(=O)O2)O[C@H]1OCC1=C(/C=C/CCCCC)[C@@H](O)[C@@H]2O[C@@]23C[C@H](O)C(C)(C)O[C@@H]13`: the IC50 with DU-145 was found to be 11 µM; with Huh-7 it was 4.9 µM; in the assay with PANC-1, 7.9 µM; in the assay on SW1990 it was 4.9 µM.
